From patent US20220378707A1, “1-(((2S,3S,4S)-3-ETHYL-4-FLUORO-5-OXOPYRROLIDIN-2-YL)METHOXY)-7-METHOXYISOQUINOLINE-6-CARBOXAMIDE COMBINATIONS AND ORAL DOSAGE FORMS” (Pfizer Inc., priority 2019, published 2022)
Entries after “also recorded” stand apart in the source; their conditions may differ.

Legend:
[1] = system: PBMC and HUVEC+LPS (TLR4 ligand); experiment: BioMAP LPS system; assay type: cell-based, human; settings: monocyte-driven Th1 inflammation; for Inhibition of biomarker readouts in the LPS system: concentrations of FIGS. 12-14; for Increased biomarker readouts in the LPS system: tofacitinib 37-1000 nM
Source text: (§1) The BioMAP systems consist of human primary cell-based systems designed to model different aspects of the human body in an in vitro format. The 12 systems tested characterized the test compounds across a broad set of systems modeling various human disease states. BioMAP systems were constructed with one or more primary cell types from healthy human donors, with stimuli (such as cytokines or growth factors) added to capture relevant signaling networks that naturally occur in human tissue or pathological conditions. Vascular biology was modeled in both a Th1 (3C system) and a Th2 (4H system) inflammatory environment, as well as in a Th1 inflammatory state specific to arterial smooth muscle cells (CASM3C system). Additional systems recapitulated aspects of the systemic immune response that included monocyte-driven Th1 inflammation (LPS system) or T cell stimulation (SAg system), chronic Th1 inflammation driven by macrophage activation (IMphg system) and the T cell-dependent activation of B cells that occurs in germinal centers (BT system). The BE3C system (Th1) and the BF4T system (Th2) represented airway inflammation of the lung, while the MyoF system modeled myofibroblast-lung tissue remodeling. Lastly, skin biology was addressed in the KF3CT system modeled Th1 cutaneous inflammation and the HDF3CGF system modeled wound healing.
(§2) All cells were from a pool of multiple donors (n=2-6), commercially purchased and handled according to the recommendations of the manufacturers. Human blood derived CD14+ monocytes were differentiated into macrophages in vitro before being added to the IMphg system. Abbreviations were used as follows: human umbilical vein endothelial cells (HUVEC), peripheral blood mononuclear cells (PBMC), human neonatal dermal fibroblasts (HDFn), B cell receptor (BCR), T cell receptor (TCR) and toll-like receptor (TLR). Cell types and stimuli used in each system were as follows:
(§3) 3C system [HUVEC+(IL-1β, TNFα and IFNγ)]; 4H system [HUVEC+(IL-4 and histamine)]; LPS system [PBMC and HUVEC+LPS (TLR4 ligand)]; SAg system [PBMC and HUVEC+T cell receptor (TCR) ligands]; BT system [CD19+B cells and PBMC+(α-IgM and TCR ligands)]; BF4T system [bronchial epithelial cells and HDFn+(TNFα and IL-4)]; BE3C system [bronchial epithelial cells+(IL-1p, TNFα and IFNγ)]; CASM3C system [coronary artery smooth muscle cells+(IL-1p, TNFα and IFNγ)]; HDF3CGF system [HDFn+(IL-1β, TNFα, IFNγ, EGF, bFGF and PDGF-BB)]; KF3CT system [keratinocytes and HDFn+(IL-1β, TNFα and IFNγ)]; MyoF system [differentiated lung myofibroblasts+(TNFα and TGFβ)]; and IMphg system [HUVEC and M1 macrophages+Zymosan (TLR2 ligand)].
(§4) Systems were derived from either single cell types or co-culture systems. Adherent cell types were cultured in 96 or 384-well plates until confluence, followed by the addition of PBMC (SAg and LPS systems). The BT system consisted of CD19+B cells co-cultured with PBMC and stimulated with a BCR activator and low levels of TCR stimulation. Test agents were prepared in DMSO (final concentration <0.1%) and were added 1 hour before stimulation, and remained in culture for 24 hours or as otherwise indicated (48-hrs, MyoF system; 72-hrs, BT system (soluble readouts); 168-hrs, BT system (secreted IgG)). Each plate contained drug controls (e.g., legacy control test agent colchicine at 1.1 μM), negative controls (e.g., non-stimulated conditions) and vehicle controls (e.g., 0.1% DMSO) appropriate for each system. Direct ELISA was used to measure biomarker levels of cell-associated and cell membrane targets. Soluble factors from supernatants were quantified using either HTRF® detection, bead-based multiplex immunoassay or capture ELISA. Overt adverse effects of test agents on cell proliferation and viability (cytotoxicity) were detected by sulforhodamine B (SRB) staining, for adherent cells, and alamarBlue® reduction for cells in suspension. […]

[2] = system: human primary cell-based systems; experiment: BioMAP panel of 12 systems; settings: for Number of annotated readouts with activity / Overt cytotoxicity on primary human cell types: 12 tissue and disease models; for Immunomodulatory activities: Decreased Activity / Inflammation-related activities: Decreased Activity: PF-06651600 200-5400 nM
Source text: as §1, §2, §3, §4

[3] = system: HUVEC+(IL-1β, TNFα and IFNγ); experiment: BioMAP 3C system; assay type: cell-based, human; settings: agent alone; PF-06650833 19, 56, 170, 500 nM; tofacitinib 37, 110, 330, 1000 nM
Source text: The BioMAP systems consist of human primary cell-based systems designed to model different aspects of the human body in an in vitro format. The 12 systems tested characterized the test compounds across a broad set of systems modeling various human disease states. BioMAP systems were constructed with one or more primary cell types from healthy human donors, with stimuli (such as cytokines or growth factors) added to capture relevant signaling networks that naturally occur in human tissue or pathological conditions. Vascular biology was modeled in both a Th1 (3C system) and a Th2 (4H system) inflammatory environment, as well as in a Th1 inflammatory state specific to arterial smooth muscle cells (CASM3C system). […]
(§5) Systems were derived from either single cell types or co-culture systems. […] Test agents were prepared in DMSO (final concentration <0.1%) and were added 1 hour before stimulation, and remained in culture for 24 hours or as otherwise indicated (48-hrs, MyoF system; 72-hrs, BT system (soluble readouts); 168-hrs, BT system (secreted IgG)). […] Soluble factors from supernatants were quantified using either HTRF® detection, bead-based multiplex immunoassay or capture ELISA. Overt adverse effects of test agents on cell proliferation and viability (cytotoxicity) were detected by sulforhodamine B (SRB) staining, for adherent cells, and alamarBlue® reduction for cells in suspension.

[4] = system: HDFn+(IL-1β, TNFα, IFNγ, EGF, bFGF and PDGF-BB); experiment: BioMAP HDF3CGF system; assay type: cell-based, human; settings: for Inhibition of biomarker readouts in the HDF3CGF system: wound healing, Th1-type inflammation, concentrations of FIGS. 12-16
Source text: as §1, §2, §3
as §5, with “systems. Adherent cell types were cultured in 96 or 384-well plates until confluence, followed by the addition of PBMC (SAg and LPS systems).” for “systems.”

[5] = PF-06650833 19-500 nM, tofacitinib 37-1000 nM
[6] = BioMAP profile, PF-06650833 19-500 nM, tofacitinib 37-1000 nM
[7] = BioMAP profile, tofacitinib 37-1000 nM

SMILES	Inhibition of biomarker readouts in the LPS system ([1]; listed as 1-(((2S,3S,4S)-3-Ethyl-4-fluoro-5-oxopyrrolidin-2-yl)methoxy)-7-methoxyisoquinol)	Inhibition of biomarker readouts in the LPS system ([1]; listed as 1-(((2S,3S,4S)-3-ethyl-4-fluoro-5-oxopyrrolidin-2-yl)methoxy)-7-methoxyisoquinol)	Number of annotated readouts with activity [2, 5]	Overt cytotoxicity on primary human cell types [2, 5]	Immunomodulatory activities: Decreased Activity [2, 6]	Inflammation-related activities: Decreased Activity [2, 6]	Additional activities in the BioMAP systems ([2]; PF-06650833 19-500 nM)	Antiproliferative effect on primary cell types [2, 5]	Activity in the 3C system [3]	MIG, Log10 molar ratio in the HDF3CGF system ([4]; PF-06650833 at 170 nM alone)	Inhibition of biomarker readouts in the HDF3CGF system [4]	Increased biomarker readouts in the LPS system [1]	Increased biomarker readouts in the LPS system ([1]; listed as Tofacitinib)	Immunomodulatory activities: Increased Activity [2, 7]	Inflammation-related activities: Increased Activity [2, 7]	Inflammation-related activities: Modulated Activity [2, 7]	Tissue remodeling activities: Increased Activity [2, 7]	Cytostatic effect on B cells, vascular cell types or fibroblasts ([2]; tofacitinib 37-1000 nM)	Inhibition of biomarker readouts in the HDF3CGF system ([4]; listed as Tofacitinib)
CC[C@@H]1[C@H](F)C(=O)N[C@@H]1COc1nccc2cc(C(N)=O)c(OC)cc12 [PF-06650833, 1-(((2S,3S,4S)-3-Ethyl-4-fluoro-5-oxopyrrolidin-2-yl)methoxy)-7-methoxyisoquinoline-6-carboxamide]	primarily active across all tested concentrations; also recorded: MCP-1, VCAM-1, E-selectin, IL-8, IL-1a, sTNFa, sPGE2, CD40, CD69, M-CSF, and TF; also recorded: strongly inhibited activation responses	PGE2, TNFα, IL-1α, and MCP1; also recorded: strongly and selectively inhibited monocyte activation responses; also recorded: MCP-1, VCAM-1, CD40, E-selectin, CD69, IL-8, IL-1α, M-CSF, sPGE2, and sTNFα	14	no evidence of overt cytotoxicity	decreased CD40, CD69, M-CSF, secreted IL-17F; also recorded: CD40, CD69, M-CSF, *sIL-17F	decreased E-selectin, MCP-1, VCAM-1, IL-6, IL-8, IL-1α, secreted TNFα, secreted PGE2; also recorded: MCP-1, VCAM-1, E-selectin, IL-6, IL-8, IL-1α, *sTNFα, *sPGE2	modest effects in BT and CASM3C systems and concentration-related decreases in secreted IL-17F and inhibition of secreted TNFα and IL-6 at the higher two concentrations only	no antiproliferative effect	no activity	−0.04121	modest inhibition VCAM-1, Col-III, and TIMP2								
C[C@@H]1CCN(C(=O)CC#N)C[C@@H]1N(C)c1ncnc2[nH]ccc12 [tofacitinib, 3-((3R,4R)-4-Methyl-3-(methyl(7H-pyrrolo[2,3-d]pyrimidin-4-yl)amino)piperidin-1-yl)-3-oxopropanenitrile]			21	no evidence of overt cytotoxicity	decreased secreted IgG, CD38, secreted IL-6, CD69, secreted IL-17F; also recorded: *sIL-6, *sIL-17F; also recorded: CD38, CD69, *sIgG,	decreased Eotaxin 3, MCP-1, VCAM-1, I-TAC, MIG, P-selectin; also recorded: MCP-1, Eot3,; also recorded: ITAC, MIG		selectively antiproliferative to T cells	no activity		ITAC and VCAM-1	increased levels of IL-1α, secreted PGE2 and secreted TNFα; also recorded: stimulated production of IL-1α, sPGE2 and sTNFα	IL-1α, sPEG2, and sTNFα	increased secreted IL-2; also recorded: *sIL-2	increased IL-1α, secreted PGE2; also recorded: *sPGE2	modulated secreted TNFα; also recorded: *sTNFα	increased MMP-9 and MMP9	no cytostatic effect	VCAM-1 and ITAC
